The record followed here is PMC2386736 (Protein Science : A Publication of the Protein Society, 2009).

What all share (type): biochemical
The target in assay [1] is T1, SENP2 (Homo sapiens, UniProt Q9HC62).
T1 sequence (Q9HC62 366-589): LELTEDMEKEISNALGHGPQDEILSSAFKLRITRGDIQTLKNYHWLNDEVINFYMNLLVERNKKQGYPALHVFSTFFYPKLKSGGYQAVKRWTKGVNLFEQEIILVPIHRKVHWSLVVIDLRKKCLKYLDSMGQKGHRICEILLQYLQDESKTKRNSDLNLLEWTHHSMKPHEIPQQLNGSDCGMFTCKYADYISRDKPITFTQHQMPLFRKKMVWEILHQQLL
As to the kind of experiment: SUMO3-PLA2 / NBD C6-HPC coupled fluorescence isopeptidase assay.

For assay [2], the target named is T2, USP2 (Homo sapiens, UniProt O75604). The assay is described as follows: Ub-PLA2 / NBD C6-HPC coupled fluorescence isopeptidase assay.
T2 sequence (O75604 259-605): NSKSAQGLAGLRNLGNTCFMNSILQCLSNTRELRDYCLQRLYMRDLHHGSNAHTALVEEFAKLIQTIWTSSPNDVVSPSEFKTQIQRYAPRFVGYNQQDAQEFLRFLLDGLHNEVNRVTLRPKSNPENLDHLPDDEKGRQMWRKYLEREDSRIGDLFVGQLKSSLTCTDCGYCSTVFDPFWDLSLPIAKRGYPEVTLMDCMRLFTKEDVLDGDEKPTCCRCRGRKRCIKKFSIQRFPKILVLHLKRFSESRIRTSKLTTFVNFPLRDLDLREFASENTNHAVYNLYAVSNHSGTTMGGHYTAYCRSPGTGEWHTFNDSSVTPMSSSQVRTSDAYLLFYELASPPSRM
Assay [3] concerns the target T3, USP7 (Homo sapiens, UniProt Q93009). The description is as above.
Assay [4] concerns the target T1, SENP2.
The target of assay [5] is T3, USP7.
In assay [6] the target is T2, USP2.

Each structure is given as a SMILES string. Read-outs that look alike come from different tables or passages of the source.

T3 sequence (Q93009 whole entry): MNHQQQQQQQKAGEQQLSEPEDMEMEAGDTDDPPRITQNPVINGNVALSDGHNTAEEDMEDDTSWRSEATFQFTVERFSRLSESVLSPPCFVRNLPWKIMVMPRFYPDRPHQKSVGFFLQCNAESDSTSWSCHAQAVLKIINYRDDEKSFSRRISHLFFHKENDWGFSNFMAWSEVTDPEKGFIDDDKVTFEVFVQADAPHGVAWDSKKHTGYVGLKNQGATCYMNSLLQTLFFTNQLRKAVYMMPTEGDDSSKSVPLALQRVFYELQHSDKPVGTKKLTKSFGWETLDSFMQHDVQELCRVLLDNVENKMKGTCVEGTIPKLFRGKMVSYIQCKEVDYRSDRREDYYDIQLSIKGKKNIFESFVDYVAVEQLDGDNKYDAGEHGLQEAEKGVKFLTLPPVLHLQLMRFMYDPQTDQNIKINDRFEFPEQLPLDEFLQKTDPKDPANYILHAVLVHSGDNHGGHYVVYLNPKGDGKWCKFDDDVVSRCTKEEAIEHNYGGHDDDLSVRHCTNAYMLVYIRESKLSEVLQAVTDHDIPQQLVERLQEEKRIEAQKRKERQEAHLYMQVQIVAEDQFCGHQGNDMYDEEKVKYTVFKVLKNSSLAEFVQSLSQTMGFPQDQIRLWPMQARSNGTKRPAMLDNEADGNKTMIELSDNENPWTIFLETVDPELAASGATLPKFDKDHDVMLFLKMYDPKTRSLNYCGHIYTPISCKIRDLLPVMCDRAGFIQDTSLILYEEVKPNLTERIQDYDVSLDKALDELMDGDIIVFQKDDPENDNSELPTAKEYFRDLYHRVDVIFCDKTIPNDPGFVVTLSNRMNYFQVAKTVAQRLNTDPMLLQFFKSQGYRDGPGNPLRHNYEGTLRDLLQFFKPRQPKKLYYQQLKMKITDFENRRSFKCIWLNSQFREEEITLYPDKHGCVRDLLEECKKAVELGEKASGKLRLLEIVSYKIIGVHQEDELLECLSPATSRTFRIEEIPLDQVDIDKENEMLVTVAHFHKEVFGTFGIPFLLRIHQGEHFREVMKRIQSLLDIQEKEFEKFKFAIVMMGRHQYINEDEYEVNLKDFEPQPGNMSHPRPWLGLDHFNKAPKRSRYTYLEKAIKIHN

The term EC50 denotes the concentration giving half of the maximal effect. Read a high EC50 as lower potency in that assay. Regarding `CCN1C(=O)C=CC1=O` [N‐Ethylmaleimide], the 50% effective concentration (EC50) at SENP2 [1] was found to be 1300 ± 200 µM; on USP2 [2], 1900 ± 200 µM; on USP7 [3] it was 1400 ± 70 µM.

Take `Cc1ccc(/C=C2\CNC/C(=C\c3ccc(C)cc3)C2=O)cc1` [NSC 632839]: the EC50 at SENP2 [4] is 9.8 ± 1.8 µM; at USP7 [5], 37 ± 1 µM; on USP2 [6], 45 ± 4 µM.
